According to patent publication US12246040B2, “Human homogeneous amniotic fluid stem cell lines and uses thereof” (priority 2018, dated 2025):

What was measured:
Assay type in all cases: cell-based
[1] = test system: homogeneous human amniotic fluid clonal stem cells; assay: In vitro neural differentiation with pharmacological agent screening; details: neural induction 21 days; results not shown
[2] = test system: homogeneous human amniotic fluid clonal stem cells; assay: In vitro osteocyte differentiation with pharmacological agent screening; details: results not shown
[3] = test system: homogeneous human amniotic fluid clonal stem cells; assay: In vitro chondrocyte differentiation with pharmacological agent screening; details: 21 days; results not shown

Compound	effect on neural / neurological development [1]	effect on bone development / osteogenic differentiation [2]	effect on chondrogenic differentiation [3]
O=S(=O)([O-])[O-].[Mg+2] [MgSO4]	minimal or no effect	minimal or no effect	minimal or no effect
CCCC(CCC)C(=O)O [VPA, valproic acid]	decreases	does not affect	does not affect
